Reference: patent US20040058976A1, “Ophthalmic compositions for treating ocular hypertension” (priority 2003, published 2004)

Test system: IOP in Dutch Belted Rabbits
Assay: Intraocular pressure (IOP) measurements in conscious Dutch Belted rabbits after topical instillation
Format: in vivo, rabbit
Conditions: for 30 min (Δ mm Hg) Treated Mean change in IOP / 60 min (Δmm Hg) Treated Mean change in IOP / 120 min (Δmm Hg) Treated Mean change in IOP / 180 min (Δmm Hg) Treated Mean change in IOP / 240 min (Δmm Hg) Treated Mean change in IOP / 030 min (Δmm Hg) Treated Mean change in IOP: change from Time 0, n = 24
Experimental: Intraocular pressure measurements (IOP) were performed in conscious adult, pigmented Dutch Belted rabbits (2-4 kg). The animals were allowed free access to standard laboratory diet and tap water, and were housed on a 12 hour light/dark cycle. Seven day rest or washout periods were allowed between assessment of the effects of topically administered treatments on IOP. In order to measure IOP, rabbits were placed in commercially available restraint boxes. Rabbits were conditioned to the restraint boxes on at least two occasions for a period of time ranging up to 6 hours before their first study. On the morning of each experiment, rabbits were placed in restraint boxes for a period of one hour before the first measurement of IOP. IOP was recorded using a pneumatic tonometer (Alcon Applanation Pneumatonograph). Eyelids were gently separated manually and the fingers of the operator were held far enough from the eye to avoid any direct pressure on the eye and surrounding tissues. The membrane of the tonometer was placed on the central part of the cornea. Each measure of IOP lasted 3-5 seconds during which time the animal was completely relaxed. In general, two measures for each eye was sufficient, the first measure being frequently discarded. The tonometer tracing represents the oscillations which correspond to ocular pulsations; the average value of the oscillations corresponded to the level of IOP in mm Hg.
The initial measurement of control IOP was done on a number of rabbits, and 12 rabbits whose control IOP were between 17-25 mm Hg (values of IOP considered to be normal) were selected for study. In each study, the rabbits were separated into two equal subgroups of 6 rabbits each with essentially equivalent control IOPs. Each study consisted of the topical administration of active test substance to one subgroup of 6 rabbits (12 eyes) and vehicle to one subgroup of 6 rabbits (12 eyes); total number of eyes tested per study being 24. In each study, one drop (volume of 50 ul) of active test substance per vehicle was instilled by means of a Hamilton syringe into both eyes of each rabbit at time ) (To). IOPs were re-measured at 30 min, 1 hour, 2 hours, 3 hours and 4 hours after instillation. Results were expressed as mean+/−SD of changes in IOP (mm Hg) from the basal To levels measured just prior to the instillation of active test agent or vehicle. The significance of the data was determined as the difference from the To value using Dunnett's t-test, as well as use of an unpaired Student's t-test for comparisons of changes in IOP between test substance and vehicle at matched time points.
Vehicles consisted of 0.5% […] peanut oil. Formulation of test agents in peanut oil was performed as follows: peanut oil formulations were prepared by dissolving 0.5%, 0.2%, 0.1%, 0.05%, 0.025% or 0.01% (wt./wt) of the test compound in peanut oil. Sonnication was used to obtain complete dissolution of the compound.

[1] = Table 3, 0.1% in peanut oil, topical
[2] = Table 5, 0.1% in peanut oil, topical
[3] = Table 2, 0.1% in peanut oil, topical

C=C(C)[C@H]1O[C@H]2CC[C@@]3(C)[C@@](O)(CC[C@H]4[C@@H]5OC(C)(C)[C@H]6C[C@@H]7C(=C)Cc8c(Cl)cc9[nH]c(c5c9c8[C@@]76O)[C@@]43C)[C@@]23O[C@H]3[C@H]1O [Penitrem A]
effect on IOP (in words) (0.1% formulated in peanut oil): significant IOP lowering | 30 min (Δ mm Hg) Treated Mean change in IOP (Table 3, 0.1% in peanut oil, topical, 30 min): −1.33 mm Hg | 60 min (Δmm Hg) Treated Mean change in IOP [1]: −2.08 mm Hg | 120 min (Δmm Hg) Treated Mean change in IOP [1]: −3.91 mm Hg | 180 min (Δmm Hg) Treated Mean change in IOP [1]: −2.96 mm Hg | 240 min (Δmm Hg) Treated Mean change in IOP [1]: −2.46 mm Hg

Afletrem
030 min (Δmm Hg) Treated Mean change in IOP (Table 5, 0.1% in peanut oil, topical, 30 min): −1.54 mm Hg | 60 min (Δmm Hg) Treated Mean change in IOP [2]: −2.04 mm Hg | 120 min (Δmm Hg) Treated Mean change in IOP [2]: −2.54 mm Hg | 180 min (Δmm Hg) Treated Mean change in IOP [2]: −2.13 mm Hg | 240 min (Δmm Hg) Treated Mean change in IOP [2]: −1.42 mm Hg

CC(C)(O)[C@H]1O[C@H]2CC[C@@]3(C)[C@@](O)(CC[C@H]4Cc5c([nH]c6ccccc56)[C@@]43C)C2=CC1=O [Paxilline]
30 min (Δ mm Hg) Treated Mean change in IOP (Table 2, 0.1% in peanut oil, topical, 30 min): −0.79 mm Hg | 60 min (Δmm Hg) Treated Mean change in IOP [3]: −2.67 mm Hg | 120 min (Δmm Hg) Treated Mean change in IOP [3]: −2.67 mm Hg | 180 min (Δmm Hg) Treated Mean change in IOP [3]: −1.71 mm Hg | 240 min (Δmm Hg) Treated Mean change in IOP [3]: −1.38 mm Hg

CC(C)(C)NC[C@H](O)COc1nsnc1N1CCOCC1 [Timolol Free Base, timolol]
effect on IOP (in words) (0.5% (free base equivalent) formulated in peanut oil): significant IOP lowering | 030 min (Δmm Hg) Treated Mean change in IOP (0.5% in peanut oil, topical 50 ul both eyes, 30 min after instillation): −2.63 mm Hg | 60 min (Δmm Hg) Treated Mean change in IOP (0.5% in peanut oil, topical): −3.46 mm Hg | 120 min (Δmm Hg) Treated Mean change in IOP (0.5% in peanut oil, topical): −3.96 mm Hg | 180 min (Δmm Hg) Treated Mean change in IOP (0.5% in peanut oil, topical): −4.21 mm Hg | 240 min (Δmm Hg) Treated Mean change in IOP (0.5% in peanut oil, topical): −2.04 mm Hg

COc1ccc2c(c1)c(CC(=O)N(C(=O)NC1CCCCC1)C1CCCCC1)c(C)n2C(=O)c1ccc(Cl)cc1 [Compound 1]
effect on IOP (in words) (0.2% formulated in peanut oil): significant IOP lowering | 030 min (Δmm Hg) Treated Mean change in IOP (0.2% in peanut oil, topical, 30 min): −2.0 mm Hg | 60 min (Δmm Hg) Treated Mean change in IOP (0.2% in peanut oil, topical): −2.58 mm Hg | 120 min (Δmm Hg) Treated Mean change in IOP (0.2% in peanut oil, topical): −2.96 mm Hg | 180 min (Δmm Hg) Treated Mean change in IOP (0.2% in peanut oil, topical): −2.42 mm Hg | 240 min (Δmm Hg) Treated Mean change in IOP (0.2% in peanut oil, topical): −1.58 mm Hg
